Assay results published in US9073955B2, “2-amino-4-arylthiazole compounds as TRPA1 antagonists” (Glenmark Pharmaceuticals, S.A., priority 2010, dated 2015).
Where two headings read alike, the source gives them in different places.

Experiments:
Human TRPA1 = target: T1, Human TRPA1 (Homo sapiens, UniProt O75762); assay: 45Calcium uptake assay: inhibition of AITC induced cellular uptake of radioactive calcium; type: cell-based; conditions: human TRPA1 expressing CHO cells, AITC 30 μM; for inhibition at 1 µM: read-out: Percentage inhibition at 1.0 μM; for inhibition at 10 µM: read-out: Percentage inhibition at 10.0 μM
T1 construct: expressed in transfected cells; host or cells: CHO cells (grown with 400 μg/ml G-418)
T1 sequence (O75762 whole entry): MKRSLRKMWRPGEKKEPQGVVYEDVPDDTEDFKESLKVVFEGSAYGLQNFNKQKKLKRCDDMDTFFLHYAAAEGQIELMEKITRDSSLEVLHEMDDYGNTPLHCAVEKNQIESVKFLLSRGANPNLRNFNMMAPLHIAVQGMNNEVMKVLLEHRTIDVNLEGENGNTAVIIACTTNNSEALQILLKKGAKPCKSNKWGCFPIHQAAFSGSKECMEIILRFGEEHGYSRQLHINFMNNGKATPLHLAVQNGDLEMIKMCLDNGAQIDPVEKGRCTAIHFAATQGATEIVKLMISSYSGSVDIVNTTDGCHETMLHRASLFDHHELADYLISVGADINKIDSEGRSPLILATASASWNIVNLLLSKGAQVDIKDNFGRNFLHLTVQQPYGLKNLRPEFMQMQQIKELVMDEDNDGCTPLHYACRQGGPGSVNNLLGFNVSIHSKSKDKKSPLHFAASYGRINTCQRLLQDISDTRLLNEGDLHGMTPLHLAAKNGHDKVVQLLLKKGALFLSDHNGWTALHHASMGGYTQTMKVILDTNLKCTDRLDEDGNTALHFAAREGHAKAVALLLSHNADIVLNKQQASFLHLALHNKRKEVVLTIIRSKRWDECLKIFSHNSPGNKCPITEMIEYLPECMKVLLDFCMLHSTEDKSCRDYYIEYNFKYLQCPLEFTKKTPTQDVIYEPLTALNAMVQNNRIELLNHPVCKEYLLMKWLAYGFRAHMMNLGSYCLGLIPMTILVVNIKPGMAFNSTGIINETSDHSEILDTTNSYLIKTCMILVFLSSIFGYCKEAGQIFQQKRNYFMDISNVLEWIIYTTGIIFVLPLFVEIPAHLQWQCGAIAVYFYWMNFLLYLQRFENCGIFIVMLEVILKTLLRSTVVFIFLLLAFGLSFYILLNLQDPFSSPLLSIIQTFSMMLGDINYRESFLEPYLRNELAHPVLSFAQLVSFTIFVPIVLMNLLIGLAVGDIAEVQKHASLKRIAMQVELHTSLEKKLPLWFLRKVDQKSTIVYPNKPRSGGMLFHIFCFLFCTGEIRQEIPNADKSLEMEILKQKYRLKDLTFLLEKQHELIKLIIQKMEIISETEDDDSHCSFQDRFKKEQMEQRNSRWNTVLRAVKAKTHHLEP
Method: The illustrative examples of the present invention were screened for TRPA1 activity according to a modified procedure described in (a) Tóth, A. et al. Life Sciences, 2003, 73, 487-498. ([…]. et al, Proc. Natl. Acad. Sci. U.S.A., 2007, 104, 13525-13530. The screening of the compounds can be carried out by other methods and procedures known to persons skilled in the art. Screening for TRPA1 Antagonist Using the ^45Calcium Uptake Assay: The inhibition of TRPA1 receptor activation was measured as inhibition of allyl isothiocyanate (AITC) induced cellular uptake of radioactive calcium. Test compounds were dissolved in 100% DMSO to prepare 10 mM stock and then diluted using plain medium with 0.1% BSA and 1.8 mM CaCl2 to get the desired concentration. The final concentration of DMSO in the reaction was 0.5% (v/v). Human TRPA1 expressing CHO cells were grown in F-12 DMEM medium with 10% FBS, 1% penicillin-streptomycin solution, and 400 μg/ml of G-418. Cells were seeded 24 h prior to the assay in 96 well plates so as to get 50,000 cells per well on the day of experiment. Cells were treated with the test compounds for 10 minutes followed by the addition of AITC at a final concentration of 30 μM and 5 μCi/ml^45Ca^+2 for 3 minutes. Cells were washed and lysed using a buffer containing 1% Triton X-100, 0.1% deoxycholate and 0.1% SDS. Radioactivity in the lysate was measured in a Packard TopCount after addition of liquid scintillant. (Toth et al, Life Sciences (2003) 73, 487-498; McNamara C R et al, Proceedings of the National Academy of Sciences, (2007) 104, 13525-13530). Concentration response curves were plotted as a % of maximal response obtained in the absence of test antagonist. IC50 values can be calculated from concentration response curve by nonlinear regression analysis using GraphPad PRISM software.

[1] = Determination of solubility by shake flask method (water); type: physicochemical; conditions: for solubility at 15 min: thermodynamic from solid, water, 37° C., shake flask
Method: About 1 mg of test substance was taken in test tube and water was added in the increment of 1 ml with shaking after addition of media (water). Solubility was observed visually also. After completion of addition of 10 ml volume of media (water), test tube containing sample solution were put on a mechanical shaker set at 37° C. and 200 rpm for shaking up to 15 minute. After shaking, content of flask was filtered through 0.45μ filter. This filtered solution is analyzed using HPLC method for quantification. A sample solution of 1 mg in 10 ml of DMSO is used as reference standard for quantifying dissolved test substance in media. Solubility is expressed as mcg/ml.
Aqueous solubility of ‘P’ substituted thiazole compounds and the parent thiazole compounds were determined using the above described procedure and the results are given Table 3.

[2] = Rat pharmacokinetic (PK) study, oral suspension; type: in vivo, male rats (Sprague Dawley); conditions: for pharmacokinetic properties (Cmax and AUC) compared to the parent thiazole acetamide: compared with the corresponding parent compound of formula (1); for Cmax / AUC(0-t): rat, plasma, parent thiazole compound of the example, male Sprague Dawley rats, oral suspension; for AUC(0-t): read-out: AUC0-24
Method: PK values were obtained in male rats (strain: Sprague Dawley) orally dosed with the compounds of the present invention as suspension. Accurately weighed quantity of compound of present invention (corrected for purity and salt factor) was transferred into a clean and dry mortar. To this mortar was added 2.5 μL/mL Tween 80 and triturated until the compound gets properly wet. To this, 0.5% (w/v) methyl cellulose suspension was added in geometric proportions and triturated thoroughly to form a uniform suspension.
Animals were provided with food and water ad libitum through out the study period. Animals were dosed orally with the compounds using a gavage needle at 10 mL/kg body weight. Blood samples (250 μl approx.) were collected from male Sprague Dawley retro orbital sinus using rat capillary tubes into 0.6 mL eppendorf tubes with tripotassium ethylenediaminetetraacetic acid (K3 EDTA) (25 μL) as anticoagulant. Samples were collected at 0.5, 1.0, 2.0, 4.0, 6.0, 8.0, 12.0 and 24.0 hr post dosing for compounds. Then samples were centrifuged immediately at 1000 g for 10 min. at 4° C. Plasma samples were separated and stored at −70° C. till analysis. Samples were processed and analyzed using LCMS/MS. Pharmacokinetic parameters were calculated using Winonlin software. Table 4 provides the pK values (Cmax, AUC) obtained in these studies.

[3] = ‘P’ substituted thiazole compound
[4] = parent thiazole compound of the example

| IC50 (Human TRPA1) | pharmacokinetic properties (Cmax and AUC) compared to the parent thiazole acetamide [2] | inhibition at 10 µM (Human TRPA1; CHO) | solubility at 15 min [1, 3] | solubility at 15 min [1, 4] | Cmax [2] | AUC(0-t) [2] | also measured | Compound |
| --- | --- | --- | --- | --- | --- | --- | --- | --- |
| > 0.5 µM | better pharmacokinetic properties | – | – | – | – | – | inhibition at 1 µM (Human TRPA1; 1.0 μM): 53.4%; inhibition at 10 µM (Human TRPA1): 99.8%; aqueous solubility over the parent thiazole acetamide ([1]; compared with the corresponding parent compound of formula (1)): better aqueous solubility | Cn1c(=O)c2c(CC(=O)/N=c3\scc(-c4ccc(C(F)(F)F)c(F)c4)n3COP(=O)(O)O)csc2n(C)c1=O [Example 11, [2-{[(1,3-Dimethyl-2,4-dioxo-1,2,3,4-tetrahydrothieno[2,3-d]pyrimidin-5-yl)acetyl]imino}-4-[3-fluoro-4-(trifluoromethyl)phenyl]-1,3-thiazol-3 (2H)-yl]methyl dihydrogen phosphate] |
| > 0.5 µM | better pharmacokinetic properties | 97.8% | > 10 µg/mL | – | – | – | Percentage inhibition at 1.0 μM (Human TRPA1; 1.0 μM): 46.47% | Cc1oc2c(c1CC(=O)/N=c1\scc(-c3ccc(OC(F)(F)F)c(Cl)c3)n1COP(=O)(O)O)c(=O)n(C)c(=O)n2C [Example 25, [4-[3-Chloro-4-(trifluoromethoxy)phenyl]-2-{[(1,3,6-trimethyl-2,4-dioxo-1,2,3,4-tetrahydrofuro[2,3-d]pyrimidin-5-yl)acetyl]imino}-1,3-thiazol-3 (2H)-yl]methyl dihydrogen phosphate] |
| > 0.5 µM | better pharmacokinetic properties | 92.4% | > 30 µg/mL | – | – | – | inhibition at 1 µM (Human TRPA1; CHO, 1.0 μM): 29.5% | Cn1nc2c(c1CC(=O)/N=c1\scc(-c3ccc(F)c(C(F)(F)F)c3F)n1COP(=O)(O)O)c(=O)n(C)c(=O)n2C [Example 28, 4-(2,4-Difluoro-3-(trifluoromethyl)phenyl)-2-((2-(2,5,7-trimethyl-4,6-dioxo-4,5,6,7-tetrahydro-2H-pyrazolo[3,4-d]pyrimidin-3-yl)acetyl)imino)thiazol-3 (2H)-yl)methyl dihydrogen phosphate] |
| – | – | – | – | < 0.2 µg/mL | < 250 ng/mL | < 4000 ng·h/mL | – | Cn1c(=O)c2c(CC(=O)Nc3nc(-c4ccc(F)c(C(F)(F)F)c4F)cs3)csc2n(C)c1=O [parent of Example 10, N-{4-[2,4-difluoro-3-(trifluoromethyl)phenyl]-1,3-thiazol-2-yl}-2-(1,3-dimethyl-2,4-dioxo-1,2,3,4-tetrahydrothieno[2,3-d]pyrimidin-5-yl)acetamide, reference compound] |
| – | – | – | – | < 1.1 µg/mL | < 250 ng/mL | < 3000 ng·h/mL | – | Cc1oc2c(c1CC(=O)Nc1nc(-c3ccc(OC(F)(F)F)c(Cl)c3)cs1)c(=O)n(C)c(=O)n2C [parent of Example 25, N-{4-[3-chloro-4-(trifluoromethoxy)phenyl]-1,3-thiazol-2-yl}-2-(1,3,6-trimethyl-2,4-dioxo-1,2,3,4-tetrahydrofuro[2,3-d]pyrimidin-5-yl)acetamide, reference compound] |
| – | – | – | – | < 0.1 µg/mL | < 500 ng/mL | < 7000 ng·h/mL | – | Cn1nc2c(c1CC(=O)Nc1nc(-c3ccc(F)c(C(F)(F)F)c3F)cs1)c(=O)n(C)c(=O)n2C [parent of Example 28, N-(4-(2,4-difluoro-3-(trifluoromethyl)phenyl)thiazol-2-yl)-2-(2,5,7-trimethyl-4,6-dioxo-4,5,6,7-tetrahydro-2H-pyrazolo[3,4-d]pyrimidin-3-yl)acetamide, reference compound] |
